Results reported in the NIST ThermoML archive (doi:10.1016/j.jct.2014.04.016).
Several values for one entry are separate records, joined by “and”; a condition that tells them apart may be missing. Equal values may be shown once.

Assay: xn = mol fraction of the nth substance listed
Settings: 100 kPa, Liquid; for viscosity: Concentric cylinders viscometry; for mass density: Vibrating tube method; for electrical conductivity: Alternating current cell with electrodes

CCCCCCCCOS(=O)(=O)[O-].CCn1cc[n+](C)c1 [1-ethyl-3-methylimidazolium octyl sulfate] + O
Settings	electrical conductivity	mass density	viscosity
293.1 K, x1 = 0.1197	–	1069.2 kg/m3	–
293.1 K, x1 = 0.1402	–	1072.6 kg/m3	–
293.1 K, x1 = 0.1605	–	1076.1 kg/m3 and 1076.2 kg/m3	–
293.1 K, x1 = 0.2632	–	1085.4 kg/m3	–
293.1 K, x1 = 0.3076	–	1087.6 kg/m3	–
293.1 K, x1 = 0.3555	–	1089.2 kg/m3	136.9 mPa·s
293.1 K, x1 = 0.4108	–	1091.1 kg/m3	154.7 mPa·s
294.1 K, x1 = 0.1402	–	1072 kg/m3	66.11 mPa·s
294.1 K, x1 = 0.1766	1 S/m	–	–
294.1 K, x1 = 0.2119	0.826 S/m and 0.828 S/m	–	–
294.1 K, x1 = 0.2632	0.585 S/m	–	–
295.1 K, x1 = 0.0803	1.81 S/m	–	–
295.1 K, x1 = 0.1402	–	1071.3 kg/m3	62.58 mPa·s
295.1 K, x1 = 0.1766	1.03 S/m	–	–
295.1 K, x1 = 0.2119	0.85 S/m and 0.852 S/m	–	–
295.1 K, x1 = 0.2632	0.606 S/m	–	–
295.1 K, x1 = 0.3555	0.387 S/m and 0.389 S/m	–	–
295.1 K, x1 = 0.4108	0.32 S/m	–	–
296.1 K, x1 = 0.1402	–	1070.6 kg/m3	59.29 mPa·s
296.1 K, x1 = 0.1605	1.18 S/m	–	–
296.1 K, x1 = 0.1766	1.05 S/m and 1.06 S/m	–	–
296.1 K, x1 = 0.2119	0.873 S/m and 0.875 S/m	–	–
296.1 K, x1 = 0.2632	0.628 S/m	–	–
296.1 K, x1 = 0.3076	0.531 S/m and 0.533 S/m	–	–
296.1 K, x1 = 0.4688	0.258 S/m	–	–
297.1 K, x1 = 0.1402	–	1069.9 kg/m3	56.2 mPa·s
297.1 K, x1 = 0.1766	1.08 S/m	–	–
297.1 K, x1 = 0.2119	0.9 S/m	–	–
297.1 K, x1 = 0.2632	0.651 S/m	–	–
298.1 K, x1 = 0.0401	2.16 S/m	–	–
298.1 K, x1 = 0.0586	2.14 S/m	–	–
298.1 K, x1 = 0.0803	1.96 S/m	–	–
298.1 K, x1 = 0.1197	1.56 S/m	1065.5 kg/m3 and 1065.9 kg/m3	46.3 mPa·s and 46.17 mPa·s
298.1 K, x1 = 0.1402	1.38 S/m	1069.3 kg/m3	53.29 mPa·s
298.1 K, x1 = 0.1605	1.25 S/m	1072.8 kg/m3 and 1072.7 kg/m3	59.39 mPa·s and 57.63 mPa·s
298.1 K, x1 = 0.1766	1.11 S/m	–	–
298.1 K, x1 = 0.2119	0.925 S/m and 0.921 S/m	–	–
298.1 K, x1 = 0.2632	0.675 S/m and 0.669 S/m	1081.9 kg/m3 and 1081.7 kg/m3	80.58 mPa·s and 82.1 mPa·s
298.1 K, x1 = 0.3076	0.573 S/m and 0.572 S/m	1084.1 kg/m3	89.42 mPa·s
298.1 K, x1 = 0.3555	0.434 S/m and 0.435 S/m	1085.8 kg/m3	104.1 mPa·s and 104 mPa·s
298.1 K, x1 = 0.4108	0.358 S/m and 0.355 S/m	1087.7 kg/m3	118 mPa·s
298.1 K, x1 = 0.4688	0.287 S/m and 0.254 S/m	–	–
298.1 K, x1 = 0.5001	0.241 S/m and 0.236 S/m	–	–
303.1 K, x1 = 0.1605	–	1069.3 kg/m3	45.8 mPa·s
303.1 K, x1 = 0.2632	–	1078.5 kg/m3	62.15 mPa·s
303.1 K, x1 = 0.3076	–	1080.7 kg/m3	69.23 mPa·s
303.1 K, x1 = 0.3555	–	1082.4 kg/m3	80.49 mPa·s
303.1 K, x1 = 0.4108	–	1084.3 kg/m3	91.61 mPa·s
303.1 K, x1 = 0.5001	0.295 S/m	–	–
308.1 K, x1 = 0.1605	–	1065.9 kg/m3	35.89 mPa·s
308.1 K, x1 = 0.2632	–	1075 kg/m3	48.72 mPa·s
308.1 K, x1 = 0.3076	–	1077.2 kg/m3	54.47 mPa·s
308.1 K, x1 = 0.3555	–	1079 kg/m3	63.27 mPa·s
308.1 K, x1 = 0.4108	–	1080.9 kg/m3	72.28 mPa·s
313.1 K, x1 = 0.1197	–	1055.4 kg/m3	23.09 mPa·s
313.1 K, x1 = 0.1605	–	1062.4 kg/m3	28.53 mPa·s
313.1 K, x1 = 0.2632	–	1072.9 kg/m3	40.23 mPa·s
313.1 K, x1 = 0.3076	–	1072.2 kg/m3	43.26 mPa·s
313.1 K, x1 = 0.3555	–	1075.6 kg/m3	50.46 mPa·s
313.1 K, x1 = 0.4108	–	1077.6 kg/m3	57.88 mPa·s
313.1 K, x1 = 0.5001	0.42 S/m	–	–
318.1 K, x1 = 0.3076	–	1070.1 kg/m3	36.02 mPa·s
318.1 K, x1 = 0.3555	–	1072.2 kg/m3	40.79 mPa·s
318.1 K, x1 = 0.4108	–	1074.2 kg/m3	46.97 mPa·s
323.1 K, x1 = 0.3555	–	1068.8 kg/m3	33.03 mPa·s
323.1 K, x1 = 0.4108	–	1070.8 kg/m3	38.58 mPa·s
323.1 K, x1 = 0.5001	0.58 S/m	–	–
